Test results: patent publication US10039747B2, “Tetrahydrocyclopentapyrrole derivatives and a method for preparing the same” (Daewoong Pharmaceutical Co., Ltd., priority 2013, dated 2018)

Target: T1, H+/K+-ATPase (Sus scrofa, UniProt P19156)
T1 construct: reaction buffer solution (60 mmol/l Tris-HCl buffer solution, pH 7.4) containing hog gastric vesicle; from tissue; host or cells: hog stomach (gastric vesicles, by centrifugation after Rabon et al. 1988)
Experiment: Inhibition of proton pump (H+/K+-ATPase) activity in hog gastric vesicles
Format: biochemical
Details: K+ specific H+/K+-ATPase activity, pH 7.4, 37° C. for 40 minutes, malachite green
Experimental: 1) Preparation of Gastric Vesicles
Gastric vesicles were prepared from hog stomach by centrifugation (Edd C. Rabon et al., Preparation of Gastric H^+,K^+-ATPase, Methods in enzymology, vol. 157 Academic Press Inc., (1988), pp. 649-654). The protein contents of the prepared gastric vesicles were quantified with a Bicinchoninic Acid (BCA) kit.
2) Measurement of Effect of Inhibiting Proton Pump (H^+/K^+-ATPase) Activity
The effect of inhibiting proton pump activity by the compound of the present invention was measured in a 96-well plate. In this experiment, K^+ specific H^+/K^+-ATPase activity was calculated based on the difference between H^+/K^+-ATPase activity in the presence of K^+ ions and H^+/K^+-ATPase activity in the absence of K^+ ions. In the 96-well plate, to negative and positive control groups, 0.5% dimethylsulfoxide (DMSO) in buffer was added, and to the test groups, the compound of the present invention was added. All the analyses were conducted at room temperature with the reaction volume of 100 μl. To a reaction buffer solution (60 mmol/l Tris-HCl buffer solution, pH 7.4) containing hog gastric vesicle, DMSO and each concentration of compound were added, and then, 10 μl of a 10 mmol/l adenosine triphosphate tris buffer solution (60 mmol/l Tris-HCl buffer solution, pH 7.4) was added to initiate an enzyme reaction. The enzyme reaction was conducted at 37° C. for 40 minutes, 50 μl of a malachite green solution (0.12% malachite green solution, 5.8% ammonium molybdate and 11% tween 20 were mixed at a ratio of 100:67:2 in 6.2 N sulfuric acid) was added to stop the reaction, and 50 μl of 15.1% sodium citrate was added. During the reaction, the amount of monophosphate (Pi) was measured at 570 nm using micro plate reader (FLUOstar Omega, BMG Company). Inhibition rate (%) was measured from the activity values of the control groups and the activity values of various concentrations of the test compound, and IC50 of the test compound was calculated from each % inhibition value of the compound using Logistic 4-parameter function of Sigmaplot 8.0 program.

T1 sequence (P19156 2-1034 limits assumed): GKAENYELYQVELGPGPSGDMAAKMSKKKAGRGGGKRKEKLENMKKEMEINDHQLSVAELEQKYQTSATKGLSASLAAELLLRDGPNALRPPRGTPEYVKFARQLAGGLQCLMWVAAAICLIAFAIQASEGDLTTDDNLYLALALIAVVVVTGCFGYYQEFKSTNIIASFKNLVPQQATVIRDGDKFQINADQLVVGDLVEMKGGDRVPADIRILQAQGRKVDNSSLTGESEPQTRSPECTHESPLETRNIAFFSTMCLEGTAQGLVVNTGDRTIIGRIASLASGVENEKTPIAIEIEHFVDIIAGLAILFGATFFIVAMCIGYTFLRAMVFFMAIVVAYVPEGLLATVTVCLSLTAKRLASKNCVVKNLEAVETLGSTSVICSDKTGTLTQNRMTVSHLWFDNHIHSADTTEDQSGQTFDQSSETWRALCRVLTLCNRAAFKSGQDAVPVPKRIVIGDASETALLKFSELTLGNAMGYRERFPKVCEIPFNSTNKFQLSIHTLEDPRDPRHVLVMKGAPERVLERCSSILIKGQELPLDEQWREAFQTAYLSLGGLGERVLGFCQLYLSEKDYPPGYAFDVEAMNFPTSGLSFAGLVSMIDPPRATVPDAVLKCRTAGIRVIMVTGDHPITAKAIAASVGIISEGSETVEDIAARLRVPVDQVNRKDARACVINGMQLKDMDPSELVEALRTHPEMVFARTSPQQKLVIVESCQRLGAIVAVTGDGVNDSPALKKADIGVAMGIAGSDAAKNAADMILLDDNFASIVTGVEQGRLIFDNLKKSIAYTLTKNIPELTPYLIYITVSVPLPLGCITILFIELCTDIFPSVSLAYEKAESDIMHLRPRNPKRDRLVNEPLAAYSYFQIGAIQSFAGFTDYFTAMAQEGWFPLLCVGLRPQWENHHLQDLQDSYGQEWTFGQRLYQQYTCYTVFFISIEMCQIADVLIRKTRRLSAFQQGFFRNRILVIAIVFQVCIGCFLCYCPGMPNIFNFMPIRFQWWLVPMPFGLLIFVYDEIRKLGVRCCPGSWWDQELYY
T1 sequence (P18434 whole entry partner): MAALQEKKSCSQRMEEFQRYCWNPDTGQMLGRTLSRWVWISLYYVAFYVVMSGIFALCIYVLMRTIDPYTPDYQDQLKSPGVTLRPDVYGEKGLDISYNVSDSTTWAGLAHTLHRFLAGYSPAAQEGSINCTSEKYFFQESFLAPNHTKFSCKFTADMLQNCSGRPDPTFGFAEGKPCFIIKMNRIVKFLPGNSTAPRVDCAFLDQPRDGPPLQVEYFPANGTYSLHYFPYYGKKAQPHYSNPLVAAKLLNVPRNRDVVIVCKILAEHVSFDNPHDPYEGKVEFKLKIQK

Structure (SMILES) | IC50
CNC1CCc2c1cn(S(=O)(=O)c1cccc(Cl)c1)c2C (stereo not shown) [Example 2, 2-((3-chlorophenyl)sulfonyl)-N,1-dimethyl-2,4,5,6-tetrahydrocyclopenta[c]pyrrol-4-amine] | 10000 nM
CNC1CCc2c1cn(S(=O)(=O)c1cccc(Cl)c1)c2-c1ccccc1 (stereo not shown) [Example 3, 2-((3-chlorophenyl)sulfonyl)-N-methyl-1-phenyl-2,4,5,6-tetrahydrocyclopenta[c]pyrrol-4-amine] | 450 nM
CNC1CCc2c1cn(S(=O)(=O)c1cccc(Cl)c1)c2-c1ccccc1C (stereo not shown) [Example 4, 2-((3-chlorophenyl)sulfonyl)-N-methyl-1-(o-tolyl)-2,4,5,6-tetrahydrocyclopenta[c]pyrrol-4-amine] | 610 nM
CNC1CCc2c1cn(S(=O)(=O)c1cccc(Cl)c1)c2-c1ccccc1Cl (stereo not shown) [Example 5, 1-(2-chlorophenyl)-2-((3-chlorophenyl)sulfonyl)-N-methyl-2,4,5,6-tetrahydrocyclopenta[c]pyrrol-4-amine] | 740 nM
CNC1CCc2c1cn(S(=O)(=O)c1cccc(Cl)c1)c2-c1ccccc1C1CC=CC1 (stereo not shown) [Example 6, 2-((3-chlorophenyl)sulfonyl)-1-(2-(cyclopent-3-en-1-yl)phenyl)-N-methyl-2,4,5,6-tetrahydrocyclopenta[c]pyrrol-4-amine] | 1320 nM
CNC1CCc2c1cn(S(=O)(=O)c1cccc(Cl)c1)c2-c1ccccc1N1CCOCC1 (stereo not shown) [Example 7] | 40000 nM
CNC1CCc2c1cn(S(=O)(=O)c1cccc(Cl)c1)c2-c1cccc(C)c1 (stereo not shown) [Example 8, 2-((3-chlorophenyl)sulfonyl)-N-methyl-1-(m-tolyl)-2,4,5,6-tetrahydrocyclopenta[c]pyrrol-4-amine] | 750 nM
CNC1CCc2c1cn(S(=O)(=O)c1cccc(Cl)c1)c2-c1cccc(F)c1 (stereo not shown) [Example 9, 2-((3-chlorophenyl)sulfonyl)-1-(3-fluorophenyl)-N-methyl-2,4,5,6-tetrahydrocyclopenta[c]pyrrol-4-amine] | 830 nM
CNC1CCc2c1cn(S(=O)(=O)c1cccc(Cl)c1)c2-c1cccc(C(F)(F)F)c1 (stereo not shown) [Example 10, 2-((3-chlorophenyl)sulfonyl)-N-methyl-1-(3-(trifluoromethyl)phenyl)-2,4,5,6-tetrahydrocyclopenta[c]pyrrol-4-amine] | 970 nM
CNC1CCc2c1cn(S(=O)(=O)c1cccc(Cl)c1)c2-c1ccc(F)cc1 (stereo not shown) [Example 11, 2-((3-chlorophenyl)sulfonyl)-1-(4-fluorophenyl)-N-methyl-2,4,5,6-tetrahydrocyclopenta[c]pyrrol-4-amine] | 550 nM
CNC1CCc2c1cn(S(=O)(=O)c1cccc(Cl)c1)c2-c1ccc(O)cc1 (stereo not shown) [Example 12, 4-(2-((3-chlorophenyl)sulfonyl)-4-(methylamino)-2,4,5,6-tetrahydrocyclopenta[c]pyrrol-1-yl)phenol] | 470 nM
CNC1CCc2c1cn(S(=O)(=O)c1cccc(Cl)c1)c2-c1ccc(C#N)cc1 (stereo not shown) [Example 13, 4-(2-((3-chlorophenyl)sulfonyl)-4-(methylamino)-2,4,5,6-tetrahydrocyclopenta[c]pyrrol-1-yl)benzonitrile] | 1800 nM
CNC1CCc2c1cn(S(=O)(=O)c1cccc(Cl)c1)c2-c1ccc(OC)cc1 (stereo not shown) [Example 14, 2-((3-chlorophenyl)sulfonyl)-1-(4-methoxyphenyl)-N-methyl-2,4,5,6-tetrahydrocyclopenta[c]pyrrol-4-amine] | 1260 nM
CNC1CCc2c1cn(S(=O)(=O)c1cccc(Cl)c1)c2-c1ccc(C(=O)OC)cc1 (stereo not shown) [Example 15, methyl 4-(2-((3-chlorophenyl)sulfonyl)-4-(methylamino)-2,4,5,6-tetrahydrocyclopenta[c]pyrrol-1-yl)benzoate] | 2900 nM
CNC1CCc2c1cn(S(=O)(=O)c1cccc(Cl)c1)c2-c1ccc(C(F)(F)F)cc1 (stereo not shown) [Example 16, 2-((3-chlorophenyl)sulfonyl)-N-methyl-1-(4-(trifluoromethyl)phenyl)-2,4,5,6-tetrahydrocyclopenta[c]pyrrol-4-amine] | 970 nM
CNC1CCc2c1cn(S(=O)(=O)c1cccc(Cl)c1)c2-c1ccc(OC(F)(F)F)cc1 (stereo not shown) [Example 17, 2-((3-chlorophenyl)sulfonyl)-N-methyl-1-(4-(trifluoromethoxy)phenyl)-2,4,5,6-tetrahydrocyclopenta[c]pyrrol-4-amine] | 1390 nM

Structure (SMILES) | IC50
CNC1CCc2c1cn(S(=O)(=O)c1cccc(Cl)c1)c2-c1ccc(C)cc1F (stereo not shown) [Example 18, 2-((3-chlorophenyl)sulfonyl)-1-(2-fluoro-4-methylphenyl)-N-methyl-2,4,5,6-tetrahydrocyclopenta[c]pyrrol-4-amine] | 430 nM
CNC1CCc2c1cn(S(=O)(=O)c1cccc(Cl)c1)c2-c1ccc(F)cc1F (stereo not shown) [Example 19, 2-((3-chlorophenyl)sulfonyl)-1-(2,4-difluorophenyl)-N-methyl-2,4,5,6-tetrahydrocyclopenta[c]pyrrol-4-amine] | 280 nM
CNC1CCc2c1cn(S(=O)(=O)c1cccc(Cl)c1)c2-c1ccc(Cl)cc1F (stereo not shown) [Example 20, 1-(4-chloro-2-fluorophenyl)-2-((3-chlorophenyl)sulfonyl)-N-methyl-2,4,5,6-tetrahydrocyclopenta[c]pyrrol-4-amine] | 540 nM
CNC1CCc2c1cn(S(=O)(=O)c1cccc(Cl)c1)c2-c1ccc(Cl)cc1Cl (stereo not shown) [Example 21, 2-((3-chlorophenyl)sulfonyl)-1-(2,4-dichlorophenyl)-N-methyl-2,4,5,6-tetrahydrocyclopenta[c]pyrrol-4-amine] | 900 nM
CNC1CCc2c1cn(S(=O)(=O)c1cccc(Cl)c1)c2-c1cc(Cl)ccc1F (stereo not shown) [Example 22, 1-(5-chloro-2-fluorophenyl)-2-((3-chlorophenyl)sulfonyl)-N-methyl-2,4,5,6-tetrahydrocyclopenta[c]pyrrol-4-amine] | 450 nM
CNC1CCc2c1cn(S(=O)(=O)c1cccc(Cl)c1)c2-c1cc(Cl)ccc1Cl (stereo not shown) [Example 23, 2-((3-chlorophenyl)sulfonyl)-1-(2,5-dichlorophenyl)-N-methyl-2,4,5,6-tetrahydrocyclopenta[c]pyrrol-4-amine] | 410 nM
CNC1CCc2c1cn(S(=O)(=O)c1cccc(Cl)c1)c2-c1ccc(F)c(F)c1 (stereo not shown) [Example 24, 2-((3-chlorophenyl)sulfonyl)-1-(3,4-difluorophenyl)-N-methyl-2,4,5,6-tetrahydrocyclopenta[c]pyrrol-4-amine] | 480 nM
CNC1CCc2c1cn(S(=O)(=O)c1cccc(Cl)c1)c2-c1cc(Cl)cc(Cl)c1 (stereo not shown) [Example 25, 2-((3-chlorophenyl)sulfonyl)-1-(3,5-dichlorophenyl)-N-methyl-2,4,5,6-tetrahydrocyclopenta[c]pyrrol-4-amine] | 790 nM
CNC1CCc2c1cn(S(=O)(=O)c1cccc(Cl)c1)c2-c1cc(Cl)c(C)cc1F (stereo not shown) [Example 26, 1-(5-chloro-2-fluoro-4-methylphenyl)-2-((3-chlorophenyl)sulfonyl)-N-methyl-2,4,5,6-tetrahydrocyclopenta[c]pyrrol-4-amine] | 620 nM
CNC1CCc2c1cn(S(=O)(=O)c1cccc(Cl)c1)c2Cc1ccccc1 (stereo not shown) [Example 27, 1-benzyl-2-((3-chlorophenyl)sulfonyl)-N-methyl-2,4,5,6-tetrahydrocyclopenta[c]pyrrol-4-amine] | 7010 nM
CNC1CCc2c1cn(S(=O)(=O)c1cccc(Cl)c1)c2-c1ccc2c(c1)OCO2 (stereo not shown) [Example 28, 1-(benzo[d][1,3]dioxol-5-yl)-2-((3-chlorophenyl)sulfonyl)-N-methyl-2,4,5,6-tetrahydrocyclopenta[c]pyrrol-4-amine] | 590 nM
CNC1CCc2c1cn(S(=O)(=O)c1cccc(Cl)c1)c2-c1ccc2occc2c1 (stereo not shown) [Example 29, 1-(benzofuran-5-yl)-2-((3-chlorophenyl)sulfonyl)-N-methyl-2,4,5,6-tetrahydrocyclopenta[c]pyrrol-4-amine] | 1280 nM
CNC1CCc2c1cn(S(=O)(=O)c1cccc(Cl)c1)c2-c1cnn(C)c1 (stereo not shown) [Example 30, 2-((3-chlorophenyl)sulfonyl)-N-methyl-1-(1-methyl-1H-pyrazol-4-yl)-2,4,5,6-tetrahydrocyclopenta[c]pyrrol-4-amine] | 1040 nM
CNC1CCc2c1cn(S(=O)(=O)c1cccc(Cl)c1)c2-c1ccoc1 (stereo not shown) [Example 31, 2-((3-chlorophenyl)sulfonyl)-1-(furan-3-yl)-N-methyl-2,4,5,6-tetrahydrocyclopenta[c]pyrrol-4-amine] | 1340 nM
CNC1CCc2c1cn(S(=O)(=O)c1cccc(Cl)c1)c2-c1ccc(C)o1 (stereo not shown) [Example 32, 2-((3-chlorophenyl)sulfonyl)-N-methyl-1-(5-methylfuran-2-yl)-2,4,5,6-tetrahydrocyclopenta[c]pyrrol-4-amine] | 450 nM
